The text below walks through data of patent US20130236966A1, “NK-1 Receptor Mediated Delivery of Agents to Cells” (THE UNIVERSITY OF CHICAGO, priority 2007, published 2013).

Ends that are not written are not given here. Alexa555 = Alexa Fluor 555 thiol-reactive fluorophore

The subject of experiment [1] is U87 glioblastoma cells. The experiment can be described thus: confocal microscopy of internalization in U87 glioblastoma cells. The class given is cell-based, human. The conditions noted are these: FIG. 3b. How it is done:
(§1) Cell lines: U87 human glioblastoma-astrocytoma epithelial-like cells (provided by Prof. Maciej S. Lesniak, University of Chicago Medical Center) were cultured in MEM with penicillin/streptomycin and 10% FBS. Normal human astrocytes (NHA) were purchased from Lonza and cultured in astrocyte growth media (Lonza) supplemented with rhEGF; Insulin, Ascorbic Acid, GA-1000, L-Glutamine and 5% FBS. HeLa cells (provided by Dr. Ronald Rock, University of Chicago) were grown in DMEM pencillin/streptomycin and with 10% FBS.
(§2) Confocal Microscopy: For each sample, 10^4 U87 cells were seeded on an 18 mm cover-slip in MEM with 10% FBS overnight in a 12-well plate, then starved in MEM with 0.1% BSA for 3 hrs. The reagent (SP-sAB conjugate, SP-Fluorophore or sAB only) was filter-sterilized, diluted to the desired final concentration in MEM 0.1% BSA and added directly to the live cells in each well for 2 hrs. Untreated cells served as a negative control. Following incubation with the reagent, the cells were washed with PBS and fixed in 4% p-formaldehyde. The cells were permeablized in TBS-Tween and blocked with 10% Normal Goat Serum for 1 hr. Actin filaments were stained with FITC-phalloidin (1:250 dilution), or TRITC-phalloidin (1:3000 dilution) for 1 hr at room temperature. Nuclei were stained with DAPI (10 μg/mL) or Hoechst reagent (Invitrogen, 1:2000) for 5 minutes at room temperature. […]

Experiment [2] deals with normal human astrocytes (NHA). The experiment can be described thus: confocal microscopy of internalization in normal human astrocytes. The class given is cell-based. The conditions noted are these: FIG. 3c. The procedure:
as §1, §2

For experiment [3], the system named is HeLa cells transfected with a plasmid coding for the NK-1 receptor. The experiment can be described thus: confocal microscopy of NK-1 receptor-mediated internalization in transfected HeLa cells. The class given is cell-based, human. The procedure:
(§3) NK-1 receptor transfection: A plasmid coding for the human NK-1 receptor in the mammalian expression vector pCDNA3(+) (provided by Dr. Robert Lefkowitz, Duke University) was transfected into HeLa cells using Lipofectamine 2000 according to manufacturer protocol, with 1 ng of the plasmid for each well containing 10^4 HeLa cells seeded on an 18 mm cover-slip in a 12-well plate.
Confocal Microscopy: For each sample, 10^4 U87 cells were seeded on an 18 mm cover-slip in MEM with 10% FBS overnight in a 12-well plate, then starved in MEM with 0.1% BSA for 3 hrs. The reagent (SP-sAB conjugate, SP-Fluorophore or sAB only) was filter-sterilized, diluted to the desired final concentration in MEM 0.1% BSA and added directly to the live cells in each well for 2 hrs. Untreated cells served as a negative control. Following incubation with the reagent, the cells were washed with PBS and fixed in 4% p-formaldehyde. The cells were permeablized in TBS-Tween and blocked with 10% Normal Goat Serum for 1 hr. Actin filaments were stained with FITC-phalloidin (1:250 dilution), or TRITC-phalloidin (1:3000 dilution) for 1 hr at room temperature. Nuclei were stained with DAPI (10 μg/mL) or Hoechst reagent (Invitrogen, 1:2000) for 5 minutes at room temperature. Samples were mounted using ProLong Gold reagent (Invitrogen). Confocal microscopy images were collected using a Leica SP2 with Alexa 488, Alexa 555 or Cy3 and […] or Cy5 excited with the 488 nm laser, the 543 nm laser and the 633 laser, respectively. Multicolored images were overlaid using the imageJ software.
The ability to specifically deliver functional biomolecular agents to living cells can be a powerful research tool for studying molecular processes. Introduction of the NK-1 receptor is sufficient for the uptake of fluorescently-labeled SP. […] HeLa cells transfected with a plasmid coding for the NK-1 receptor were incubated for 2 hours with 20 nM fluorescently-labeled SP. The cells were then stained with phalloidin for visualization of actin structure.

The test system of experiment [4] is HeLa cells transfected with the NK-1 receptor. The experiment is described as follows: delivery of a polynucleotide encoding GFP. The class given is cell-based, human. The conditions noted are these: 200 pM, FIG. 7. The procedure:
as §3
To determine if other types of agents could also be delivered to cells expressing NK-1 receptors in accordance with the invention, HeLa cells transfected with the NK-1 receptor as described above, were incubated with an SP-polynucleotide conjugate. The polynucleotide encoded GFP operably linked to a promoter functional in the cells. The polynucleotide was also fluorescently tagged with Alexa-647 such that delivery of the polynucleotide into the cell could be monitored as well as expression of GFP.

The subject of experiment [5] is U87 glioblastoma cells. The experiment is described as follows: MTS proliferation / cell viability assay. The class given is cell-based, human. The conditions noted are these: 10 nM or 20 nM, 48 hrs, FIG. 5a. How it is done: MTS proliferation assay: U87 cells were seeded in 96-well plates at density 5000 cells/well in 0.1 mL of growth media. Cells were attached overnight and starved for 3 hours. Cells were stimulated with 20 nM sAB27-SP conjugate for 3, 5, 9, 24 and 48 hours, and SP or sAB27 alone for 48 hours in starving media. 20 μL of the MTS-based CellTiter 96 Aqueous One Solution reagent was added to each well. The plate was incubated in a humidified, 5% CO2 atmosphere until color was developed and the absorbance was recorded at 490 nm.
Due to the actin-bundling activity of sAB-27, its effect on the viability of U87 glioblastoma cells following SP-mediated delivery was investigated. Live U87 cells were treated with either 10 nM or 20 nM of the SP-sAB-27 conjugate and a cell viability assay was carried out at different time points up to 48 hrs after treatment. The viability of cells incubated with the conjugates was compared with that of cells treated with SP alone or sAB-27 alone, as well as untreated cells.

In the case of “SP-Alexa555: variant of SP with a cysteine at position 3 carrying a thiol-reactive fluorophore; positive control for NK-1 receptor-mediated internalization (RPC(Alexa555)PQQFFGLM; ends and bridges not checked)”, the “internalization by U87 cells” value with U87 glioblastoma cells [1] (100 nM (figure legend)) was “internalization”; with U87 glioblastoma cells [1] (200 nM, 2 hr), “readily internalize”. Also, in experiment [2] (100 nM (figure legend)), the “internalization by NHA” value is “no internalization was observed”. In addition, the “internalization by normal astrocytes” value in experiment [2] (200 nM, 2 hr) is “undetectable”. In addition, the “internalization by transfected cells” value in experiment [3] (20 nM, 2 hours, confocal microscopy) is “rapid internalization”. The “effect on actin structure” value in experiment [3] (100 nM, FITC-phalloidin, FIG. 2a,b) is “actin structure is unaffected”.
For “SP-polynucleotide conjugate: SP conjugated to an Alexa-647 tagged polynucleotide encoding GFP operably linked to a promoter (RPKPQQFFGLM; ends and bridges not checked; also: conjugated to Alexa-647 tagged GFP-encoding polynucleotide, site not given here; UniProt P20366 58-68, looked up)”, in experiment [4] (2 hours), the “internalization of the Alexa-647 tagged polynucleotide” value is “internalized after 2 hours” and the “localization of the internalized polynucleotide” value is given as “at least a portion co-localized with the nucleus of the cell”. Besides, the “expression of GFP” value in experiment [4] (24 hours, confocal microscopy) is given as “expression of GFP after 24 hours”.
Turning to “SP: 11-amino acid peptide that is rapidly internalized upon binding to the NK-1 receptor; used alone as control (RPKPQQFFGLM; ends and bridges not checked; UniProt P20366 58-68, looked up)”, the cell viability entry in the experiment on U87 glioblastoma cells [5] is “no effect on viability”. Moreover, the “localization with actin / effect on actin structure” value in experiment [3] (20 nM, phalloidin staining, FIG. 2) was “no specific localization with actin and no apparent effect on the structure of the actin filaments”.
